Test results: EP2140864A2 (H. Lundbeck A/S, priority 2001, dated 2002)
Like-named read-outs stand apart in the source and are kept apart here.

Assays:
human 5HT1E = target: T1, human 5HT1E (Homo sapiens, UniProt P28566); experiment: Radioligand binding, 5HT1E receptor ([3H]-serotonin)
T1 construct: expressed in transfected cells
Description: Human 5HT1B, 5HT1D, 5HT1E, 5HT1F, and 5HT7 Receptors: The cell lysates of LM(tk-) clonal cell line stably transfected with the genes encoding each of these 5HT receptor-subtypes were prepared as described above. Cell membranes were suspended in 50mM Tris-HCl buffer (pH 7.4 at 37°C) containing 10 mM MgCl2, 0.2 mM EDTA, 10 µM pargyline, and 0.1% ascorbate. […] Nonspecific binding was determined in the presence of 10 µM serotonin. The bound radioligand was separated by filtration through GF/B filters using a cell harvester.
(§1) Binding data were analyzed using nonlinear regression and statistical techniques available in the GraphPAD Prism package (San Diego, CA). Enzymatic assay data were derived from a standard curve of reference compound data.

human 5HT4 receptor = target: T2, human 5HT4 receptor (Homo sapiens, UniProt Q13639); experiment: Radioligand binding, 5-HT4 receptor
T2 construct: expressed in transfected cells
T2 sequence (Q13639 whole entry): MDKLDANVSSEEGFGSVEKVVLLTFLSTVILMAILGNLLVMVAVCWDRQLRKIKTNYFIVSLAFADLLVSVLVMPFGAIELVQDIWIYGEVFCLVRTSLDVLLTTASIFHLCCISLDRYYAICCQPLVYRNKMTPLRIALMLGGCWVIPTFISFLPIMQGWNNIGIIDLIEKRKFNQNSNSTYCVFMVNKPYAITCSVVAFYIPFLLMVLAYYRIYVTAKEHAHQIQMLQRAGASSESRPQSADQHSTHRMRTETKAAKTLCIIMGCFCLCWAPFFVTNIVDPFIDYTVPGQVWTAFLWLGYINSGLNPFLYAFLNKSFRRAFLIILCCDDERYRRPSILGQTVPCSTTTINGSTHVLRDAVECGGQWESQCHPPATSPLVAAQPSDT
Description: Other 5-HT Receptors: Other serotonin receptor binding assays were performed according to published methods: rat 5HT2C receptor (Julius et al., 1988); and 5-HT6 (Monsma, et al., 1993). The binding assays using the 5-HT4 receptor were performed according to the procedures described in U.S. Patent No. 5,766,879, the disclosure of which is hereby incorporated by reference in its entirety into this application.
as §1

[1] = target: T3, human α1D adrenergic receptor (Homo sapiens, UniProt P25100); experiment: Radioligand binding, α1D adrenergic receptor
T3 construct: expressed in transfected cells
T3 sequence (P25100 1-572): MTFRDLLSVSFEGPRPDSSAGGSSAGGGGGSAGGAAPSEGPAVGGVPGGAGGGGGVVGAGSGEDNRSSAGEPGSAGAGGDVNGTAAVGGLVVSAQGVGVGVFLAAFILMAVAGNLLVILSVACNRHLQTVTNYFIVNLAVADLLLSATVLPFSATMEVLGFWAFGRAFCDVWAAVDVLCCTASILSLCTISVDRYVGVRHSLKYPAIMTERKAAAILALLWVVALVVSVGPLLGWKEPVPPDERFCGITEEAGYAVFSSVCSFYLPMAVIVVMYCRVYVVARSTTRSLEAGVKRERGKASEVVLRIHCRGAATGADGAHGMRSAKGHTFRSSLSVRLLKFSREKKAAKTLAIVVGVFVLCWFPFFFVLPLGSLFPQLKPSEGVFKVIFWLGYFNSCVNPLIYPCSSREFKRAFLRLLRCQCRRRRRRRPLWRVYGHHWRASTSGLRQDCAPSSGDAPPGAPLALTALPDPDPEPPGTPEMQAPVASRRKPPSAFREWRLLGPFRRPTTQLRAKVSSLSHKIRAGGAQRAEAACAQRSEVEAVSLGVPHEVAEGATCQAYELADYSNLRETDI
From the text: (§2) Other receptors: Cell membranes expressing human dopamine D1, D2, D4 and rat D3 receptors were purchased through BioSignal, Inc. (Montreal, Canada). Binding assays using the histamine H1 receptor; dopamine receptors; and α1A, α1E, and α2 adrenergic receptors may be carried out according to the procedures described in U.S. Patent No. 5,780,485, the disclosure of which is hereby incorporated by reference in its entirety into this application. Binding assays using the dopamine D5 receptor may be carried out according to the procedures described in U.S. Patent No. 5,882,855, the disclosure of which is hereby incorporated by reference in its entirety into this application. Binding assays for the human α1D adrenergic receptor may be carried out according to the procedures described in U.S. Patent No. 6,156,518, the disclosure of which is hereby incorporated by reference in its entirety into this application.
as §1

human α2A adrenoceptor = target: T4, human α2A adrenoceptor (Homo sapiens, UniProt P08913); experiment: Radioligand binding, α2A adrenergic receptor
T4 construct: expressed in transfected cells
T4 sequence (P08913 1-465): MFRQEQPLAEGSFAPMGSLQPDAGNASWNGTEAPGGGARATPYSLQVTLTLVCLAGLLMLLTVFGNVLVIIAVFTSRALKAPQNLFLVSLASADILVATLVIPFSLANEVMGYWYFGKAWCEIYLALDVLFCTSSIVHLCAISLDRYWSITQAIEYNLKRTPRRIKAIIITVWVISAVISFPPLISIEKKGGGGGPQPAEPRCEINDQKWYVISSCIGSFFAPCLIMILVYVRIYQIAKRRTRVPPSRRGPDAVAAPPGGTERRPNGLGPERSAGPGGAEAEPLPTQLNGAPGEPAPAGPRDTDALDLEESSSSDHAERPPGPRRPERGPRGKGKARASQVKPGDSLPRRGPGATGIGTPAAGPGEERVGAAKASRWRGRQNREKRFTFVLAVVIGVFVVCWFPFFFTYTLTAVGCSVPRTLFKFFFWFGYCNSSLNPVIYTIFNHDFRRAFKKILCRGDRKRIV
From the text: as §2, §1

human α1A adrenoceptor = target: T5, human α1A adrenoceptor (Homo sapiens, UniProt P35348); experiment: Radioligand binding, α1A adrenergic receptor
T5 construct: expressed in transfected cells
T5 sequence (P35348 1-466): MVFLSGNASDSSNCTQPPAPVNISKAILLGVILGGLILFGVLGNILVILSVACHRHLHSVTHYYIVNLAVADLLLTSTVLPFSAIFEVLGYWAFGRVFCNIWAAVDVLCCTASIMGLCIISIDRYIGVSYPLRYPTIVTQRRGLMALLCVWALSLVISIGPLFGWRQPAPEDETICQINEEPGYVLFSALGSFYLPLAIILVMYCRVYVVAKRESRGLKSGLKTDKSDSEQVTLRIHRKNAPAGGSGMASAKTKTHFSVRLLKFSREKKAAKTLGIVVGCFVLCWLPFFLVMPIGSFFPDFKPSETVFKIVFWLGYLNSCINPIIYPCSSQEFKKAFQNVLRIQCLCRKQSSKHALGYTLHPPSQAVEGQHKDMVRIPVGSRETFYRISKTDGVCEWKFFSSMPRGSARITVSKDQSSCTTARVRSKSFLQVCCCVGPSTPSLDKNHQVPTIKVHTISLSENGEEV
From the text: as §2, §1

[2] = Table 8; Ki h5HT1E divided by Ki hGAL3
[3] = Table 8; Ki h5HT4 divided by Ki hGAL3
[4] = Table 10; Ki hα1D divided by Ki hGAL3
[5] = Table 10; Ki hα2A divided by Ki hGAL3
[6] = Table 10; Ki hα1A divided by Ki hGAL3

T1 sequence (P28566 whole entry): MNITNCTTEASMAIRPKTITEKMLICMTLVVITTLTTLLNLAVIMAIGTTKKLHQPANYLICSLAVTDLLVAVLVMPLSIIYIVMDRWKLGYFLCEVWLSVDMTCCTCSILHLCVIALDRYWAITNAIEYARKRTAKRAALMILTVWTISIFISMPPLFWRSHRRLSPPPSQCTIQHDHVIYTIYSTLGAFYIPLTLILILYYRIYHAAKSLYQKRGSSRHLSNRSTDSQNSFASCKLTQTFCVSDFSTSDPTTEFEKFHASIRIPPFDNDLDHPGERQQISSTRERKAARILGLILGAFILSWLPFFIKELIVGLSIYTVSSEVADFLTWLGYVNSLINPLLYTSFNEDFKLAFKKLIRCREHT

| SMILES | selectivity ratio h5HT1E (human 5HT1E; [2]) | Ki (human 5HT1E; read-out: h5HT1E Ki; Table 7) | selectivity ratio h5HT4 (human 5HT4 receptor; [3]) | Ki (human 5HT4 receptor; read-out: h5HT4 Ki; Table 7) | selectivity ratio hα1D [1, 4] | Ki ([1]; read-out: hα1D Ki; Table 9) | selectivity ratio hα2A (human α2A adrenoceptor; [5]) | Ki (human α2A adrenoceptor; read-out: hα2A Ki; Table 9) | selectivity ratio hα1A (human α1A adrenoceptor; [6]) | Ki (human α1A adrenoceptor; read-out: hα1A Ki; Table 9) | Ki (human 5HT1E; Table 7; read-out: h5HT1E Ki) | Ki (human 5HT4 receptor; Table 7; read-out: h5HT4 Ki) | Ki ([1]; Table 9; read-out: hα1D Ki) | Ki (human α2A adrenoceptor; Table 9; read-out: hα2A Ki) | Ki (human α1A adrenoceptor; Table 9; read-out: hα1A Ki) |
| --- | --- | --- | --- | --- | --- | --- | --- | --- | --- | --- | --- | --- | --- | --- | --- |
| COC[C@@H]1[C@@H](c2ccccc2)OCCN1c1nc(Nc2ccc(C)cc2)cc(N2CCCCC2)n1 [Example 49] | >100 | 23.9 µM | >30 | 13.2 µM | 3 | 0.678 µM | 22 | 4.73 µM | >30 | 6.65 µM | – | – | – | – | – |
| CN(C)c1cc(Nc2ccc(Cl)c(Cl)c2)nc(Nc2ccccc2)n1 [Example 60] | 14 | – | 14 | – | >30 | – | >100 | – | >100 | – | 1.18 µM | 1.18 µM | 4.23 µM | 10.8 µM | 13.6 µM |
| O=C1C(=Nc2ccc(Br)cc2)c2ccccc2N1c1ccccc1 [Example 98, 3-[(4-BROMOPHENYL)IMINO]-1-PHENYL-1,3-DIHYDRO-2H-INDOL-2-ONE] | >100 | – | >30 | – | >30 | – | >100 | – | >100 | – | 16.2 µM | 1.21 µM | 1.89 µM | 23.2 µM | 14.5 µM |
| O=C1C(=Nc2cccc(Cl)c2)c2ccccc2N1c1ccccc1 [Example 94, 3-[(3-CHLOROPHENYL)IMINO]-1-PHENYL-1,3-DIHYDRO-2H-INDOL-2-ONE] | >100 | – | >30 | – | >30 | – | >100 | – | >100 | – | 25.2 µM | 4.12 µM | 4.03 µM | 12.7 µM | 12.7 µM |
| O=C1C(=Nc2cccc(C(F)(F)F)c2)c2ccccc2N1c1ccccc1 [Example 92, 1-PHENYL-3- [[3-(TRIFLUOROMETHYL)PHENYL]IMINO]-1,3-DIHYDRO-2H-INDOL-2-ONE] | >100 | – | 2 | – | >100 | – | >100 | – | – | – | – | – | – | – | – |
